Measured values: patent US20240343732A1, “COMPOUNDS FOR DEGRADATION OF CYCLIN-DEPENDENT KINASE 7(CDK7)” (QURIENT CO., LTD., priority 2021, published 2024)

Key:
CDK2 = target: T1, CDK2 (Homo sapiens, UniProt P24941); assay: Binding assay (FRET, LanthaScreen Eu, Tracer236) for CDK2; conditions: for IC50: read-out: CDK2 IC50 (enzyme binding assay)
T1 construct: His; purchased Invitrogen PR4448B
Experimental: (§1) Inhibition activity of compound to CDK7 kinase was tested in a binding assay which was applied to the FRET (fluorescence resonance energy transfer) principle from the europium (Eu) donor fluorophore to the acceptor fluorophore on the kinase tracer. Test compounds were made to 1.125 mM of compound solution, and then this compound solution 4-fold serial diluted in 8 steps using an automated liquid handler (JANUS™, PerkinElmer). 80 nL/well of each diluted compound solution was added into the 384-well plate (Greiner, Cat #784075) first and 7.5 ul/well of working solution [5 nM of CDK7/CycH/MNAT1 (Invitrogen, Cat #PR6749B), 4 nM of Biotin anti-His Tag Antibody (Invitrogen, Cat #PV6090), and LanthaScreen® Eu-Streptavidin (Invitrogen, Cat #PV6025)] was added. After mixing the solution well, the same volume with the working solution of Tracer236 (Invitrogen, Cat #PV5592) was added into each well in the plate. The plate was incubated for 60 minutes at room temperature and then all the fluorescence were measured using Envision leader (Perkin Elmer, USA) [Laser as excitation light; […] as the first and the second emission filter]. Data was analysed using XL Fit software.
(§2) All of the synthesized compounds were screened in the above-mentioned assay procedure. To identify the inhibition activity of compounds for other CDKs including CDK1 (Invitrogen, Cat #PR4768C), CDK2 (Invitrogen, Cat #PR4448B) and CDK5 (Invitrogen, Cat #PR8543B) were tested using the same protocol under reasonable concentration of Tracer236 and kinases for each assay. The formula for the assay buffer summarized in below table.

CDK7/CycH/MNAT1 = target: T2, CDK7/CycH/MNAT1 (Homo sapiens, UniProt P50613); assay: Binding assay (FRET, LanthaScreen Eu, Tracer236) for CDK7; conditions: read-out: CDK7 IC50 (enzyme binding assay)
T2 construct: His; purchased Invitrogen PR6749B
Experimental: as §1, §2

CDK1 = target: T3, CDK1 (Homo sapiens, UniProt P06493); assay: Binding assay (FRET, LanthaScreen Eu, Tracer236) for CDK1; conditions: for IC50: read-out: CDK1 IC50 (enzyme binding assay)
T3 construct: His; purchased Invitrogen PR4768C
Experimental: as §1, §2

CDK7 protein = target: T4, CDK7 protein (Homo sapiens, UniProt P50613); assay: Western blot assay for CDK7 protein degradation in A2780 cells; format: cell-based; conditions: 24 hours; for DC50: read-out: Compound concentration that caused 50% CDK7 protein degradation in A2780 cells (DC50);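 as to all read-outs here: A is DC50 up to 100 nM B is 100 to 1000 nM C is above 1000 nM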
T4 construct: To verify endogenous CDK7 protein degradation; endogenous in cells; host or cells: A2780 (ECACC 93112519)
Experimental: Human ovarian cancer cell line, A2780 (Cat #93112519) was obtained from ECACC. Cells were grown in RPMI-1640 media (Invitrogen, Cat #22400105) supplemented with 10% FBS (Hyclone, Cat #SH30084.03) and 1% penicillin/streptomycin (Hyclone, Cat #SV30010) and cultured at 37° C., 5% Co2 in a humidified chamber. All cell lines were routinely tested for mycoplasma.
To verify endogenous CDK7 protein degradation upon treatment of CDK7-specific degrader, the western blot assay was conducted a 24 hours' time period. 6×10^5 cells/well of A2780 cells were plated in 6-well plate. After 24 hours, the cells were treated with various concentrations of the compound corresponding range. DMSO solvent without compound served as a control and final DMSO concentration was not to exceed 0.1% of total volume. After 24 hours of incubation at 37° C., 5% Co2 incubator, cells were collected and lysed with 60 ul of lysis buffer. Collected lysates were incubated for 30 min on ice and collect supernatant through centrifugation at 12,000 rpm for 10 min at 4° C. The protein in lysates were quantified with BCA protein quantification kit (Pierce, Cat #23227) following manufacture's protocol. Cell lysates were diluted into 1 ug/ul of concentration with lysis buffer. 20 ug of protein was loaded to each well of 4˜12% Bis-Tris gel (Invitrogen, Cat #NP0336BOX) with MOPS running buffer (Invitrogen, Cat #NP0001). The proteins were transferred from gel to membrane and incubated with primary antibody as followed at 4° C. overnight; CDK7 (CST, Cat #2090S) and β-actin (Santa Cruz, Cat #sc-47778) 1:20,000. The signals were developed and acquired with ImageQuant™ LAS 4000.

CDK5 = target: T5, CDK5 (Homo sapiens, UniProt Q00535); assay: Binding assay (FRET, LanthaScreen Eu, Tracer236) for CDK5; conditions: for IC50: read-out: CDK5 IC50 (enzyme binding assay)
T5 construct: His; purchased Invitrogen PR8543B
Experimental: as §1, §2

T3 sequence (P06493 whole entry): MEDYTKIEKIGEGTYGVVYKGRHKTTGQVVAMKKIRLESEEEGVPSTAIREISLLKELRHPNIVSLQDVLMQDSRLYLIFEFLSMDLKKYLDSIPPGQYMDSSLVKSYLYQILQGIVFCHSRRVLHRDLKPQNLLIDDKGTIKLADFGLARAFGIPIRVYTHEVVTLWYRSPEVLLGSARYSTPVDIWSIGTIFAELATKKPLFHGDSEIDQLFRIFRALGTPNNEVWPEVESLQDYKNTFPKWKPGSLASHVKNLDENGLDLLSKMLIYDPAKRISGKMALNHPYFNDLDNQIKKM
T3 sequence (P14635 whole entry partner): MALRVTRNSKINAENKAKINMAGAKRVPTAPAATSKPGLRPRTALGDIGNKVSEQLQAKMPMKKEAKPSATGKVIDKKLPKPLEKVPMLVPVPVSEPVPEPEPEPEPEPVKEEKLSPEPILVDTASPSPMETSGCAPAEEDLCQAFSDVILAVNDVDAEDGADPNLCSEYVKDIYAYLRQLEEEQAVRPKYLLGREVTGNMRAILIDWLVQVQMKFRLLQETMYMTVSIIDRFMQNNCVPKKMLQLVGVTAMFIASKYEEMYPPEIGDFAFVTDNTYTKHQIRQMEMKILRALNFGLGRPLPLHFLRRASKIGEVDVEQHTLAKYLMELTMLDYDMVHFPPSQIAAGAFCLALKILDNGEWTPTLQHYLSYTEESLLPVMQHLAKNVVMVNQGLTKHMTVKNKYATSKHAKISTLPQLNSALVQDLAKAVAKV
T5 sequence (Q00535 whole entry): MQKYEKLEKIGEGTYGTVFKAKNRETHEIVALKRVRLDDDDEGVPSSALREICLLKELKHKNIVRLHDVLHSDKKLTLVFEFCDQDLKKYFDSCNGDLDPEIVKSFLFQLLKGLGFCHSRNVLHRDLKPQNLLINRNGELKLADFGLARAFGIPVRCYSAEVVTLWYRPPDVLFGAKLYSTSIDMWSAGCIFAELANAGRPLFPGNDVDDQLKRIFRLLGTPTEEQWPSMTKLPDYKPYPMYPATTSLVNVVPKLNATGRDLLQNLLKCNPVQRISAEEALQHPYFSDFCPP
T5 sequence (Q15078 99-307 partner limits assumed): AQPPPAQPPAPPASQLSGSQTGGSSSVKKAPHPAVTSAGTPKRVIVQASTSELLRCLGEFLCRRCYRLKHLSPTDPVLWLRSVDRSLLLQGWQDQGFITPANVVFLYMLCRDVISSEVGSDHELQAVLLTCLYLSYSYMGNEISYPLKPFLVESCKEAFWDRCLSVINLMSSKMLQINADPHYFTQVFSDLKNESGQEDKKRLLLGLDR
T2 sequence (P50613 whole entry): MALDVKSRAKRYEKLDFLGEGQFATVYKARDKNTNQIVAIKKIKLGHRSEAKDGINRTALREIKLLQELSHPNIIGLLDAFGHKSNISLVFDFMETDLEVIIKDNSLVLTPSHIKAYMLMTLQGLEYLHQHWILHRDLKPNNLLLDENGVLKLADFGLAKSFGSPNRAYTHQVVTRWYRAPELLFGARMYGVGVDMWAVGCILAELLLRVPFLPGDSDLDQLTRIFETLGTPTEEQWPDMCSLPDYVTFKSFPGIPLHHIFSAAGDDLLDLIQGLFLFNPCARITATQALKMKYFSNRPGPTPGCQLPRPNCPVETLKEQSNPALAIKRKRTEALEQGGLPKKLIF
T2 sequence (P51946 whole entry partner): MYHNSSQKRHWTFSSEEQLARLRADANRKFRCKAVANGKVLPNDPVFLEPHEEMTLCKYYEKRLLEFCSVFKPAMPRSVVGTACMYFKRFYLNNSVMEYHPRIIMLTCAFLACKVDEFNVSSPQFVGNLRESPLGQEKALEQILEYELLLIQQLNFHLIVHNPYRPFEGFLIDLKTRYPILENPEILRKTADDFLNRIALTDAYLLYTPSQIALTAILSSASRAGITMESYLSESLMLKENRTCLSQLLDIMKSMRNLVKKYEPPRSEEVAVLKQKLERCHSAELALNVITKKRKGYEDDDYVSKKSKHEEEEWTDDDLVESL
T2 sequence (P51948 whole entry partner): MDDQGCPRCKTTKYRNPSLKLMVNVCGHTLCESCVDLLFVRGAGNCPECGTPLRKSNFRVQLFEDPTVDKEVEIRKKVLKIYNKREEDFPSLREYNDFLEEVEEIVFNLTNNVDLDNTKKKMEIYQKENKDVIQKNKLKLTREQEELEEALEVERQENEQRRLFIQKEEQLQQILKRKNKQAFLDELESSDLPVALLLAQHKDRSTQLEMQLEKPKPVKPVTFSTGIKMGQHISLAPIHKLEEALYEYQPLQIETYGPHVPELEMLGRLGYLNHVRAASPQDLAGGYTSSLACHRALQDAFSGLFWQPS
T4 sequence (P50613 whole entry): as the sequence (P50613 whole entry) above

| Compound | CDK2/CDK7: Selectivity of CDK7 inhibition over CDK2 inhibition (CDK2) | IC50 (CDK2) [nM] | IC50 (CDK7/CycH/MNAT1) [nM] | CDK1/CDK7: Selectivity of CDK7 inhibition over CDK1 inhibition (CDK1) | IC50 (CDK1) [nM] | Compound concentration that caused 50% CDK7 protein degradation in A2780 cells (DC50, nM) (CDK7 protein) | DC50 (CDK7 protein) [nM] | CDK5/CDK7: Selectivity of CDK7 inhibition over CDK5 inhibition (CDK5) | IC50 (CDK5) [nM] |
| --- | --- | --- | --- | --- | --- | --- | --- | --- | --- |
| Cc1ncsc1-c1ccc(CNC(=O)[C@@H]2C[C@@H](O)CN2C(=O)[C@@H](NC(=O)C2(F)CC2)C(C)(C)C)c(OCCCCCCCCNc2ccc3c(-c4ccccc4CNc4nc(O[C@@H]5CCCNC5)nc5c(C(C)C)cnn45)nccc3c2)c1 [Compound 22] | A (A indicates [fold] > 500) | > 1000 | 100 to 1000 | A (A indicates [fold] > 500) | > 1000 | B or A | 100 to 1000 | B (B indicates 50 < [fold] ≤ 500) | > 1000 |
| CC(C)c1cnn2c(NCc3ccccc3-c3nccc4cc(NCCOCCOCCNC(=O)CNc5ccc6c(c5)CN(C5CCC(=O)NC5=O)C6=O)ccc34)nc(O[C@@H]3CCCNC3)nc12 (stereo partly drawn) [Compound 16] | A (A indicates [fold] > 500) | > 1000 | ≤ 100 | A (A indicates [fold] > 500) | > 1000 | B or A | 100 to 1000 | A (A indicates [fold] > 500) | > 1000 |
| Cc1ncsc1-c1ccc(CNC(=O)[C@@H]2C[C@@H](O)CN2C(=O)[C@@H](NC(=O)C2(F)CC2)C(C)(C)C)c(OCCOCCOCCOCCNc2ccc3c(-c4ccccc4CNc4nc(O[C@@H]5CCCNC5)nc5c(C(C)C)cnn45)nccc3c2)c1 [Compound 19] | A (A indicates [fold] > 500) | > 1000 | ≤ 100 | A (A indicates [fold] > 500) | > 1000 | – | ≤ 100 | A (A indicates [fold] > 500) | > 1000 |
| Cc1ncsc1-c1ccc(CNC(=O)[C@@H]2C[C@@H](O)CN2C(=O)[C@@H](NC(=O)C2(F)CC2)C(C)(C)C)c(OCCOCCNc2ccc3c(-c4ccccc4CNc4nc(O[C@@H]5CCCNC5)nc5c(C(C)C)cnn45)nccc3c2)c1 [Compound 20] | A (A indicates [fold] > 500) | > 1000 | ≤ 100 | A (A indicates [fold] > 500) | > 1000 | – | ≤ 100 | A (A indicates [fold] > 500) | > 1000 |
| CC(C)c1cnn2c(NCc3ccccc3-c3nccc4cc(NCCOCCOCCNC(=O)CNc5ccc6c(c5)C(=O)N(C5CCC(=O)NC5=O)C6=O)ccc34)nc(O[C@@H]3CCCNC3)nc12 (stereo partly drawn) [Compound 10] | A (A indicates [fold] > 500) | > 1000 | ≤ 100 | A (A indicates [fold] > 500) | > 1000 | B or A | 100 to 1000 | A (A indicates [fold] > 500) | > 1000 |
| Cc1ncsc1-c1ccc(CNC(=O)[C@@H]2C[C@@H](O)CN2C(=O)[C@@H](NC(=O)CCOCCOCCNc2ccc3c(-c4ccccc4CNc4nc(O[C@@H]5CCCNC5)nc5c(C(C)C)cnn45)nccc3c2)C(C)(C)C)cc1 [Compound 15] | A (A indicates [fold] > 500) | > 1000 | ≤ 100 | A (A indicates [fold] > 500) | > 1000 | – | ≤ 100 | A (A indicates [fold] > 500) | > 1000 |
| CC(C)C[C@H](NC(=O)[C@@H](O)[C@H](N)Cc1ccccc1)C(=O)NCCOCCOCCNc1ccc2c(-c3ccccc3CNc3nc(O[C@@H]4CCCNC4)nc4c(C(C)C)cnn34)nccc2c1 [Compound 13] | A (A indicates [fold] > 500) | > 1000 | ≤ 100 | A (A indicates [fold] > 500) | > 1000 | – | > 1000 | A (A indicates [fold] > 500) | > 1000 |

Next, values leading:

| CDK2/CDK7: Selectivity of CDK7 inhibition over CDK2 inhibition (CDK2) | IC50 (CDK2) [nM] | IC50 (CDK7/CycH/MNAT1) [nM] | CDK1/CDK7: Selectivity of CDK7 inhibition over CDK1 inhibition (CDK1) | IC50 (CDK1) [nM] | Compound concentration that caused 50% CDK7 protein degradation in A2780 cells (DC50, nM) (CDK7 protein) | DC50 (CDK7 protein) [nM] | CDK5/CDK7: Selectivity of CDK7 inhibition over CDK5 inhibition (CDK5) | IC50 (CDK5) [nM] | Compound |
| --- | --- | --- | --- | --- | --- | --- | --- | --- | --- |
| A (A indicates [fold] > 500) | > 1000 | ≤ 100 | A (A indicates [fold] > 500) | > 1000 | – | ≤ 100 | A (A indicates [fold] > 500) | > 1000 | Cc1cc(C(C(=O)N2C[C@H](O)C[C@H]2C(=O)NCc2ccc(-c3scnc3C)cc2OCCOCCOCCNc2ccc3c(-c4ccccc4CNc4nc(O[C@@H]5CCCNC5)nc5c(C(C)C)cnn45)nccc3c2)C(C)C)on1 (stereo partly drawn) [Compound 24] |
| B (B indicates 50 < [fold] ≤ 500) | > 1000 | ≤ 100 | A (A indicates [fold] > 500) | > 1000 | – | ≤ 100 | B (B indicates 50 < [fold] ≤ 500) | > 1000 | CC(C)c1cnn2c(NCc3ccccc3-c3nccc4cc(NCC5CCN(CC6CCN(c7ccc8c(c7)C(=O)N(C7CCC(=O)NC7=O)C8=O)CC6)CC5)ccc34)nc(O[C@@H]3CCCNC3)nc12 (stereo partly drawn) [Compound 30] |
| A (A indicates [fold] > 500) | > 1000 | ≤ 100 | A (A indicates [fold] > 500) | > 1000 | – | ≤ 100 | B (B indicates 50 < [fold] ≤ 500) | > 1000 | CC(C)c1cnn2c(NCc3ccccc3-c3nccc4cc(N5CCN(CC6CCN(c7ccc8c(c7)C(=O)N(C7CCC(=O)NC7=O)C8=O)CC6)CC5)ccc34)nc(O[C@@H]3CCCNC3)nc12 (stereo partly drawn) [Compound 33] |
| A (A indicates [fold] > 500) | > 1000 | ≤ 100 | A (A indicates [fold] > 500) | > 1000 | – | ≤ 100 | A (A indicates [fold] > 500) | > 1000 | Cc1ncsc1-c1ccc(CNC(=O)[C@@H]2C[C@@H](O)CN2C(=O)[C@@H](NC(=O)C2(F)CC2)C(C)(C)C)c(OCCN2CCC(N3CCC(CNc4ccc5c(-c6ccccc6CNc6nc(O[C@@H]7CCCNC7)nc7c(C(C)C)cnn67)nccc5c4)CC3)CC2)c1 [Compound 25] |
| A (A indicates [fold] > 500) | > 1000 | ≤ 100 | A (A indicates [fold] > 500) | > 1000 | – | ≤ 100 | B (B indicates 50 < [fold] ≤ 500) | > 1000 | CC(C)c1cnn2c(NCc3ccccc3-c3nccc4cc(NCC5CCN(C6CCN(c7ccc8c(c7)C(=O)N(C7CCC(=O)NC7=O)C8=O)CC6)CC5)ccc34)nc(O[C@@H]3CCCNC3)nc12 (stereo partly drawn) [Compound 31] |
